Source: article PMC9953701 (Biomedicines, 2023)
≈ marks a conversion by molar mass, not a printed value. Where two headings read alike, the source gives them in different places. Positions of bridges follow the written chain, without caps; N, C: chain ends. Residues, ends and D or L forms follow the SMILES beside them.

Columns and labels:
[1] = system: Salmonella enterica serovar Typhimurium DA6192 wild type and LL-37-resistant mutants (waaY, phoP); assay: MIC against LL-37-resistant strains in buffer conditions; format: cell-based; parameters: unit not given here; settings: 20 mM sodium phosphate buffer with 0.1% TSB, 16 to 20 h, 37 °C
Method: (§1) The LL-37 resistant mutants (DA22427 and DA23307) used in this study were derived from Salmonella enterica serovar Typhimurium DA6192, wild-type and cyclotides-resistant mutants (DA54114 and DA57107) were derived from E. coli MG1655 (wild type) and were kindly provided by Department of Medical Biochemistry and Microbiology, Uppsala University.
(§2) MIC measurements were performed in 20 mM sodium phosphate buffer (PBS), supplemented with 0.1% TSB in 96-well plates (round bottom, Nunc A/S, Roskilde, Denmark) in a total volume of 100 µL. The overnight cultures were diluted 5 × 10^5 CFU/mL in the same medium and 90 µL was transferred into the plates containing 10 µL of 2-fold diluted peptides. […] At least two independent experiments were performed with two technical replicates. In cyclotides, resistant mutant average MIC was reported.

[2] = system: Pseudomonas aeruginosa ATCC 27853; format: cell-based; settings: ATCC 27853, 24 h
Excerpt: (§3) The three bacterial strains—Escherichia coli ATCC 25922, Pseudomonas aeruginosa ATCC 27853, and Staphylococcus aureus ATCC 29213—as well as the fungal strain Candida albicans ATCC 90028 were provided by the Department of Clinical Bacteriology, Lund University Hospital. Bacillus subtilis CCUG 163B^T and Bacillus cereus CCUG 7414^T were obtained from the Department of Molecular Sciences, Swedish University of Agricultural Sciences.
(§4) The standard broth microdilution assay was utilized to assess the MIC of designed peptides according to the guidelines of the Clinical and Laboratory Standards Institute (CLSI). Briefly, bacteria were grown in unbuffered Mueller–Hinton Broth (MHB, VWR International, Leuven, Belgium) as well as buffered (containing 50 mM NaHCO3) medium to the mid-logarithmic phase and were quantified by OD600. The bacterial suspension was diluted in the same medium to reach a final density of 1 × 10^6 colony-forming unit per milliliter (CFU/mL). A volume of 50 µL of the bacterial suspension was added to 96-well plates containing 50 µL of MHB in the absence (viability control) or the presence of the peptides at different concentrations (0.625–80 µM). […] MIC values were derived from 3 sets of independent experiments with different bacterial cultures.

[3] = system: Staphylococcus aureus ATCC 29213; format: cell-based; settings: ATCC 29213, 24 h
Excerpt: as §3, §4

[4] = system: Escherichia coli ATCC 25922; format: cell-based; settings: ATCC 25922, 24 h
Excerpt: as §3, §4

[5] = system: Bacillus subtilis CCUG 163BT; format: cell-based; settings: CCUG 163, 24 h
Excerpt: as §3, §4

[6] = system: Bacillus cereus CCUG 7414T; format: cell-based; settings: CCUG 7414, 24 h
Excerpt: as §3, §4

[7] = system: Bacillus subtilis CCUG 163BT; format: cell-based; settings: CCUG 163, 5 h
Method: as §3
(§5) Antimicrobial activities of the peptides were evaluated using the two-step microdilution assay, which is designed for testing AMPs without activity-inhibiting components. Briefly, bacteria were grown to the mid-logarithmic phase at 37 °C in 3% (w/v) tryptic soy broth (TSB) (Merck KGaA, Darmstadt, Germany). The microbial culture was washed twice by centrifugation and resuspension in 10 mM Tris buffer (pH 7.4 at 37 °C, adjusted by HCl). The microbial suspension was quantified by OD600, diluted, and transferred to 96-well untreated polystyrene microplates prepared with 2-fold serial dilutions of the peptides using 50,000 bacteria per well (all dilutions in Tris buffer). These were incubated for 5 h at 37 °C, after which 5 µL of 20% (w/v) TSB was added to each well and the microplates were re-incubated for an additional 6–12 h (depending on the growth rate of each organism). All MICs presented are the medians from triplicate experiments performed independently.

[8] = system: E. coli MG1655 wild type and cyclotides-resistant mutants; assay: MIC against cyclotide-resistant strains in buffer conditions; format: cell-based, Escherichia coli; parameters: unit not given here
Method: as §1, §2

[9] = Liposome leakage assay (carboxyfluorescein efflux); settings: E. coli lipid liposomes versus POPC/cholesterol liposomes, 45 min, 37 °C
Method: The liposome leakage assay was performed as described previously. In brief, the following lipids/lipid mixture was used: Escherichia coli polar lipid extract or 1-palmitoyl-2-oleoyl-sn-glycerol-3-phosphocoline1-palmitoyl-2-oleoyl-sn-glycerol (POPC, both from Avanti Polar Lipids, Alabaster, US-AL) and cholesterol (Sigma Aldrich). The lipid bilayers were formed on round-bottom flask walls by dissolving lipids in chloroform was evaporated under a flow of N2 and the lipid bilayer was placed in a vacuum overnight. Lipid bilayers were re-suspended in an aqueous solution of 100 mM 5(6)-carboxyfluorescein in 10 mM Tris buffer. […] Membrane permeability was measured by monitoring carboxyfluorescein efflux from the liposomes to the external low-concentration environment, resulting in loss of self-quenching and an increased fluorescence signal with excitation and emission wavelengths of 492 and 517 nm, respectively. […] The effect on liposome permeability for each peptide concentration was monitored for 45 min, at which point leakage had largely subsided. […] The EC50 values are (when applicable) calculated using sigmoidal dose–response curves, with the leakage percentage (0–100 constraints) as a function of the peptide concentration (log10), using GraphPad Prism.

[10] = system: Pseudomonas aeruginosa ATCC 27853; format: cell-based; settings: P. aeruginosa; Control: two-step microdilution assay in Tris buffer 10 mM without salts; median of triplicates
Method: as §3, §5
(§6) A two-step assay was supplemented with a physiological concentration of salts and diluted human serum and the MIC of the peptides was evaluated as in 4.6.

[11] = system: Staphylococcus aureus ATCC 29213; format: cell-based; settings: S. aureus; Control: two-step microdilution assay in Tris buffer 10 mM without salts; median of triplicates
Method: as §3, §5, §6

[12] = system: Candida albicans ATCC 90028; format: cell-based; settings: C. albicans; Control: two-step microdilution assay in Tris buffer 10 mM without salts; median of triplicates
Method: as §3, §5, §6

[13] = biological target: T1, aureolysin from S. aureus (Staphylococcus aureus, UniProt P81177); assay: Stability in the presence of the protease aureolysin; format: in vitro ADME; settings: peptide:enzyme 200:1, 37 °C, RP-HPLC-MS
T1 construct: purchased
T1 sequence (P81177 209-509): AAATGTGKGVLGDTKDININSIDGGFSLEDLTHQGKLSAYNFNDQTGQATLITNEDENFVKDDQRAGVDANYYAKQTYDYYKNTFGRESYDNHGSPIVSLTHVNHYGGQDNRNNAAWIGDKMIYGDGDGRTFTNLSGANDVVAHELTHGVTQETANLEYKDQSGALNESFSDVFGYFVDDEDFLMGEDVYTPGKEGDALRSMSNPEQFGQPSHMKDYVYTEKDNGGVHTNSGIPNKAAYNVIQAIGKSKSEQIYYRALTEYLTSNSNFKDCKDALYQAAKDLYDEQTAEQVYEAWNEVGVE
Method: Peptide stability was also assayed in commercially available Gram-positive, S. aureus protease, aureolysin. […] All the samples were then incubated at 37 °C at different incubation times. The reaction was quenched by acidifying with 5 µL of 0.1% formic acid. The samples were analyzed on MS coupled to RP-HPLC.

[14] = S. typhimurium phoP LL-37-resistant mutant
[15] = S. typhimurium waaY LL-37-resistant mutant

| Structure (SMILES) | MIC ([1]; S. typhimurium WT (DA6192)) | MIC [1, 14] | MIC [1, 15] | MIC [2] | MIC [3] | MIC [4] | MIC [5] | MIC [6] | MIC [7] | MIC ([8]; E. coli DA54114 cyclotide-resistant mutant, sodium phosphate buffer with 0.1% TSB, average MIC) | MIC ([8]; E. coli DA57107 cyclotide-resistant mutant, sodium phosphate buffer with 0.1% TSB, average MIC) | MIC ([8]; E. coli WT (MG1655), 20 mM sodium phosphate buffer with 0.1% TSB, 16 to 20 h, 37 °C) | bacterial target selectivity relative to LL-37 (factor) [9] | MIC [10] | MIC [11] | MIC [12] | time for which the peptide was stable in aureolysin (stable for up to) [13] |
| --- | --- | --- | --- | --- | --- | --- | --- | --- | --- | --- | --- | --- | --- | --- | --- | --- | --- |
| CC[C@H](C)[C@@H]1NC(=O)[C@H](CCCNC(=N)N)NC(=O)[C@@H]2CSSC[C@H](NC(=O)[C@H](CCCCN)NC(=O)[C@H]([C@@H](C)CC)NC(=O)[C@H](CCCNC(=N)N)NC(=O)[C@H](CCCCN)NC(=O)[C@H](C(C)C)NC(=O)[C@H]([C@@H](C)CC)NC(=O)[C@H](CCCNC(=N)N)NC(=O)[C@H](CCCCN)NC(=O)CNC(=O)CNC(=O)[C@H](C)NC(=O)CNC(=O)[C@H](CCCNC(=N)N)NC(=O)[C@H](CC(C)C)NC(=O)[C@H](Cc3ccccc3)NC(=O)[C@H](C)NC(=O)[C@H](CCCCN)NC1=O)C(=O)N[C@@H](Cc1ccccc1)C(=O)N[C@@H](CC(C)C)C(=O)N[C@@H](CCCNC(=N)N)C(=O)NCC(=O)N[C@@H](C)C(=O)NCC(=O)NCC(=O)N[C@@H](CCCCN)C(=O)N[C@@H](CCCNC(=N)N)C(=O)N[C@@H]([C@@H](C)CC)C(=O)N[C@@H](C(C)C)C(=O)N2 [cd4-CC] (cyclo(CFLRGAGGKRIVCRIKAFLRGAGGKRIVKRIK); disulfide 1-13) | 1.25 | 1.25 | 2.5 | 5 µM (≈ 17.5 µg/mL) | >40 µM | 5 µM (≈ 17.5 µg/mL) | > 40 µM | > 40 µM | 0.625 µM (≈ 2.19 µg/mL) | – | – | – | – | – | – | – | – |
| CC[C@H](C)[C@@H]1NC(=O)[C@H](CCCNC(=N)N)NC(=O)[C@@H]2CSSC[C@H](NC(=O)[C@H](CCCCN)NC(=O)[C@H]([C@@H](C)CC)NC(=O)[C@H](CCCNC(=N)N)NC(=O)[C@H](CCCCN)NC(=O)[C@H](C(C)C)NC(=O)[C@H]([C@@H](C)CC)NC(=O)[C@H](CCCNC(=N)N)NC(=O)[C@H](CCCCN)NC(=O)CNC(=O)CNC(=O)[C@@H]3CCCN3C(=O)CNC(=O)[C@H](CCCNC(=N)N)NC(=O)[C@H](CC(C)C)NC(=O)[C@H](Cc3ccccc3)NC(=O)[C@H](C)NC(=O)[C@H](CCCCN)NC1=O)C(=O)N[C@@H](Cc1ccccc1)C(=O)N[C@@H](CC(C)C)C(=O)N[C@@H](CCCNC(=N)N)C(=O)NCC(=O)N1CCC[C@H]1C(=O)NCC(=O)NCC(=O)N[C@@H](CCCCN)C(=O)N[C@@H](CCCNC(=N)N)C(=O)N[C@@H]([C@@H](C)CC)C(=O)N[C@@H](C(C)C)C(=O)N2 [cd4-CCPP] (cyclo(CFLRGPGGKRIVCRIKAFLRGPGGKRIVKRIK); disulfide 1-13) | 2.5 | 1.25 | 1.25 | – | – | – | > 40 µM | > 40 µM | – | 0.25 | 0.25 | 0.37 | 6 fold | 0.625 µM | 0.625 µM | 0.625 µM | ≥ 8 h |
